Test results reported in PubChem BioAssay AID1794823.

Molecular target: Sodium- and chloride-dependent creatine transporter 1 (Homo sapiens) (UniProt P48029)
Test: SLC6A8 creatine transport substrate activity, dose response, cell-based, membrane potential dye, HEK-293 JumpIN, SLC6A8 overexpression (AID 1794823)
Details: HEK-293 JumpIN SLC6A8, FLIPR membrane potential fluorescence

Sodium- and chloride-dependent creatine transporter 1 (Homo sapiens), sequence (P48029 whole entry, looked up): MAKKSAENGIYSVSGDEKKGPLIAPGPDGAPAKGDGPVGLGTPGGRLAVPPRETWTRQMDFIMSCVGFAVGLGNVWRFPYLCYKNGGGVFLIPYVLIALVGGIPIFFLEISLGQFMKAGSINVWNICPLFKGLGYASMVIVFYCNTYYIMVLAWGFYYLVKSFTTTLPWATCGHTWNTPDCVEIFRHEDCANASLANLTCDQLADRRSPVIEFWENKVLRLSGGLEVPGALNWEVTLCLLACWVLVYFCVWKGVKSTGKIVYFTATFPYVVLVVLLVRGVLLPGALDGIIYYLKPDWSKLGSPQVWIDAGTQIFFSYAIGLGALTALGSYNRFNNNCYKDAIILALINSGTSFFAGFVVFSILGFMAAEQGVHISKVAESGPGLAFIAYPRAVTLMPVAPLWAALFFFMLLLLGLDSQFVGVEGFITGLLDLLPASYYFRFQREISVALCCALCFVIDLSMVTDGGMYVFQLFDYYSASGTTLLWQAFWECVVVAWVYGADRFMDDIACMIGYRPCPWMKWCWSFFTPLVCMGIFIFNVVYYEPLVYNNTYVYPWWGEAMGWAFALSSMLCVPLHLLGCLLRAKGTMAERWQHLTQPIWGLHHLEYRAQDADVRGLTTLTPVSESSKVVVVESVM

EC50: 5 µM
SMILES: CN(CC(=O)O)C(=N)N
